In the supplement of paper PMC6470124:

How the values were obtained:
[1] = absolute recovery over mixed-bed multilayer solid-phase extraction; higher = better recovery; settings: enrichment method: SPE
Outline: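 Wastewater (100–250 mL, adjusted to pH 6.5 and glass-fibre filtered) or 1000 mL unfiltered nanopure water was loaded on a three-layer mixed-bed cartridge and eluted with basic then acidic ethyl acetate/methanol. Standards were spiked before extraction, after it, or not at all, at 200 ng/L (water) or 1000 ng/L (wastewater), with class exceptions. Internal standards were added afterwards, then LC-HRMS/MS ran in both ionisation modes. Absolute recovery compares background-corrected response ratios of pre- versus post-spiked samples, averaged over at least two replicates.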

[2] = LC retention time (Atlantis T3, 5-95% MeOH gradient, 0.1% formic acid); higher = more retained / less polar
Outline: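 Retention times were recorded for reference standards (purity ≥ 95%) on a polar reversed-phase C18 column (Atlantis T3, 3 × 150 mm, 3 μm) at 0.3 mL/min. Elution used water and methanol, each with 0.1% formic acid, in a gradient from 5 to 95% methanol over 17.5 min. Detection was by high-resolution tandem mass spectrometry on a QExactive Plus, with positive and negative electrospray in separate runs. Peaks were found and integrated in TraceFinder (5 ppm tolerance, at least three points per peak) and then checked by hand.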

[3] = absolute recovery over vacuum-assisted evaporative concentration; higher = better recovery; settings: enrichment method: VEC
Outline: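 Samples of influent (6 mL), effluent (15 mL) and surface or nanopure water (60 mL) were spiked with standards before or after concentration, or left unspiked, at 200 ng/L (nanopure/surface) or 1000 ng/L (wastewater), adjusted by class and compound. Concentration was by evaporation at 55 °C and 20 mbar to about 0.3 mL, followed by adjustment to 0.4 mL and centrifugation. Internal standards were then added for LC-HRMS/MS analysis. Absolute recovery was (response ratio pre − unspiked)/(post − unspiked) × 100, using averages of ≥ 2 replicates.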

| SMILES | absolute recovery ([1]; nanopure water) | absolute recovery ([1]; surface water) | absolute recovery ([1]; wastewater effluent) | absolute recovery ([1]; wastewater influent) | LC retention time [2] | absolute recovery ([3]; wastewater effluent) | absolute recovery ([3]; wastewater influent) |
| --- | --- | --- | --- | --- | --- | --- | --- |
| CCC1OC(=O)C(C)C(OC2CC(C)(OC)C(O)C(C)O2)C(C)C(OC2OC(C)CC([N+](C)(C)[O-])C2O)C(C)(OC)CC(C)C(=O)C(C)C(O)C1(C)O (stereo not given) [Clarithromycin-N-Oxide] | 91.1% | 85.3% | 96.6% | 93.9% | 17.3 min | 103% | 95.9% |
| CCC1OC(=O)C(C)C(OC2CC(C)(OC)C(O)C(C)O2)C(C)C(OC2OC(C)CC([NH+](C)C)C2O)C(C)(OC)CC(C)C(=O)C(C)C(O)C1(C)O (stereo not given) [Clarithromycin] | 89.7% | 98.5% | 91% | 85.1% | 16.9 min | 100% | 105% |
| CC(C)(C)C(=O)C(Oc1ccc(Cl)cc1)n1ccnc1 (stereo not given) [Climbazol] | 98.6% | 96.1% | 91.7% | 90.1% | 16.5 min | 106% | 101% |
| CCCC1CC(C(=O)NC(C(C)Cl)C2OC(SC)C(O)C(O)C2O)[NH+](C)C1 (stereo not given) [Clindamycin] | 90.1% | 94.8% | 90% | 78.7% | 14.6 min | 100% | 73.2% |
| CC(C)(Oc1ccc(Cl)cc1)C(=O)[O-] [Clofibric-acid] | 96.4% | 94.1% | 93.9% | 92.9% | 19.3 min | 105% | 103% |
| CC1(C)CON(Cc2ccccc2Cl)C1=O [Clomazon] | – | 92.1% | 82.7% | 87.1% | 19 min | 80.3% | 78% |
| O=C([O-])C(c1ccccc1Cl)[NH+]1CCc2sccc2C1 (stereo not given) [Clopidogrel-Carboxylic-Acid] | 93.2% | 94% | 91.1% | 92.8% | 14.8 min | 103% | 102% |
| CCCCCC(C)OC(=O)COc1ccc(Cl)c2cccnc12 (stereo not given) [Cloquintocet-mexyl] | 56.8% | 67.2% | 70.9% | – | 22.4 min | 111% | 103% |
| C[NH+]=C([N-][N+](=O)[O-])NCc1cnc(Cl)s1 [Clothianidin] | – | 95.6% | – | 94.1% | 13.8 min | 104% | 106% |
| Clc1ccccc1C(c1ccccc1)(c1ccccc1)n1ccnc1 [Clotrimazol] | 93.4% | 90.3% | 85.9% | 90.1% | 16.6 min | 111% | 110% |
| COC(=O)C1C(OC(=O)c2ccccc2)CC2CCC1[NH+]2C (stereo not given) [Cocaine] | 97.2% | 96.4% | 93.8% | 94.5% | 12.2 min | 71.1% | 62.2% |
| COc1ccc2c3c1OC1C(O)C=CC4C(C2)[NH+](C)CCC341 (stereo not given) [Codein] | 90.2% | 92.6% | 91.7% | 93% | 9.16 min | 104% | 102% |
| Cn1c(=O)c2c(ncn2C)n(C)c1=O [Coffein] | 96.4% | – | 94.5% | – | 12.5 min | 99.7% | – |
| CC12CCC(=O)C=C1CCC1C2C(O)CC2(C)C(C(=O)CO)CCC12 (stereo not given) [Corticosteron] | 87.8% | 71.9% | 71.8% | 89.1% | 19 min | 111% | 55.6% |
| CC12CCC(=O)C=C1CCC1C2C(=O)CC2(C)C1CCC2(O)C(=O)CO (stereo not given) [Cortison] | 74.9% | 75.6% | 74.8% | 95.2% | 17.5 min | 99.8% | 54.6% |
| CN1C(=O)CCC1c1cccnc1 (stereo not given) [Cotinine] | 109% | 135% | 112% | – | 6.11 min | 100% | – |
| CC=CC(=O)N(CC)c1ccccc1C [Crotamiton] | 78.6% | 70.5% | 75.3% | 91.5% | 19.3 min | 59.5% | 70.2% |
| CC=CC(=O)N(CC)C(CC)C(=O)N(C)C (stereo not given) [Crotethamide] | 106% | 94.6% | 86.1% | 121% | 15.9 min | 97.5% | 94.6% |
| Cc1ccc(-c2c(Cl)nc(C#N)n2S(=O)(=O)N(C)C)cc1 [Cyazofamid] | 66.4% | 64.6% | 58% | 63.2% | 20.3 min | 99.5% | 104% |
| O=S(=O)([O-])NC1CCCCC1 [Cyclamat] | 95.8% | – | 29% | – | 14.3 min | 104% | – |
| O=P1(N(CCCl)CCCl)NCCCO1 (stereo not given) [Cyclophosphamid] | 98.1% | 96.4% | 93.9% | 94.5% | 16.1 min | 104% | 100% |
| CCCC(NOCC)=C1C(=O)CC(C2CCCSC2)CC1=O (stereo not given) [Cycloxydim] | 73.9% | 78.4% | 76.3% | 92.2% | 22.3 min | 87.3% | 76.6% |
| CN(C)C(=O)NC1CCCCCCC1 [Cycluron] | 91.4% | 91.2% | 89.2% | 94.2% | 18.8 min | 92.5% | 106% |
| O=C(Cc1ccccc1)NC(=NOCC1CC1)c1c(C(F)(F)F)ccc(F)c1F [Cyflufenamid] | 91.9% | 106% | 106% | 84.3% | 20.9 min | 95.4% | 117% |
| CCNC(=O)NC(=O)C(C#N)=NOC [Cymoxanil] | 98.4% | 83.5% | 87.9% | 115% | 15.2 min | 53.4% | 69.8% |
| CC(C1CC1)C(O)(Cn1cncn1)c1ccc(Cl)cc1 (stereo not given) [Cyproconazol] | 99.4% | 88.2% | 87.6% | 93.5% | 20.1 min | 92.9% | 95.8% |
| Cc1cc(C2CC2)nc(Nc2ccccc2)n1 [Cyprodinil] | 100% | 93.8% | 92.5% | 89.9% | 19.8 min | 86.9% | 88.2% |

| SMILES | absolute recovery ([1]; nanopure water) | absolute recovery ([1]; surface water) | absolute recovery ([1]; wastewater effluent) | absolute recovery ([1]; wastewater influent) | LC retention time [2] | absolute recovery ([3]; wastewater effluent) | absolute recovery ([3]; wastewater influent) |
| --- | --- | --- | --- | --- | --- | --- | --- |
| Nc1nc(N)[nH+]c(NC2CC2)n1 [Cyromazin] | 83.7% | – | 88.1% | 91.5% | 7.27 min | 101% | 104% |
| Nc1ccn(C2OC(CO)C(O)C2O)c(=O)n1 (stereo not given) [Cytarabin] | 103% | 112% | 104% | 64.6% | 15.6 min | 89.3% | – |
| C[NH2+]CCCC(C#N)(c1ccc(OC)c(OC)c1)C(C)C (stereo not given) [D617] | 89.5% | 84.5% | 86.9% | 81.5% | 14 min | 101% | 100% |
| CN(C)S(=O)(=O)Nc1ccccc1 [DMSA (=N-N-Dimethylaminosulfanilid)] | 100% | 95.5% | 89.9% | 136% | 15.9 min | 100% | 95.6% |
| C#CC[N+](C)([O-])C(C)Cc1ccccc1 (stereo not given) [Deprenyl-N-Oxide] | 68.6% | 71.5% | 70.5% | 77.3% | 12.2 min | 102% | 106% |
| CC1CC2C3CCC4=CC(=O)C=CC4(C)C3(F)C(O)CC2(C)C1(O)C(=O)CO (stereo not given) [Dexamethason] | 92.3% | 86.2% | 91.2% | 94% | 18.7 min | 106% | 105% |
| COc1ccc2c(c1)C13CCCCC1C(C2)[NH+](C)CC3 (stereo not given) [Dextromethorphan] | 86.8% | 94.5% | 93.4% | 77.6% | 14.5 min | 102% | 107% |
| CC(=O)Nc1c(I)c(NC(C)=O)c(I)c(C(=O)[O-])c1I [Diatrizoate (=Amidotrizoic-acid)] | 69% | 74.5% | 73.8% | 65.1% | 10 min | 100% | 102% |
| CN1C(=O)CN=C(c2ccccc2)c2cc(Cl)ccc21 [Diazepam] | 97.6% | 94.9% | 93.6% | 95.7% | 19.5 min | 105% | 99.2% |
| CCOP(=S)(OCC)Oc1cc(C)nc(C(C)C)n1 [Diazinon] | 77.6% | 86.9% | 80.5% | 82.8% | 21.1 min | 27.1% | 18.9% |
| CCCCOc1cc(C(=O)NCC[NH+](CC)CC)c2ccccc2n1 [Dibucaine] | 99.8% | 81.6% | 93% | – | 16.2 min | 92% | 136% |
| COc1c(Cl)ccc(Cl)c1C(=O)[O-] [Dicamba] | 95.6% | 94% | 93.5% | 91.2% | 19.3 min | 104% | 106% |
| CC(Oc1ccc(Cl)cc1Cl)C(=O)[O-] (stereo not given) [Dichlorprop] | 97.8% | 95.4% | – | 87.9% | 20.1 min | 104% | 99.8% |
| COP(=O)(OC)OC=C(Cl)Cl [Dichlorvos] | 63.4% | 47.3% | 60% | 87.4% | 16.8 min | 34.5% | 39.6% |
| O=C([O-])Cc1ccccc1Nc1c(Cl)cccc1Cl [Diclofenac] | 102% | – | – | – | 20.8 min | – | 98.5% |
| O=c1[nH+]c[n-]c2c1ncn2C1CCC(CO)O1 (stereo not given) [Didanosin] | 107% | 85.1% | 83.5% | 102% | 9.79 min | 84.9% | – |
| CC12CCC3=C4CCC(=O)C=C4CCC3C1CCC2(O)CC#N (stereo not given) [Dienogest] | 97.4% | 81.6% | 79% | 87% | 18.1 min | 97.4% | 92.2% |
| CCOc1ccc(NC(=O)OC(C)C)cc1OCC [Diethofencarb] | 98.1% | 103% | 95.6% | 93.8% | 19.2 min | 104% | 106% |
| CC1COC(Cn2cncn2)(c2ccc(Oc3ccc(Cl)cc3)cc2Cl)O1 (stereo not given) [Difenoconazol] | 90.2% | 100% | 102% | 70.9% | 21.4 min | 100% | 126% |
| O=C(NC(=O)c1c(F)cccc1F)Nc1ccc(Cl)cc1 [Diflubenzuron] | 101% | 138% | 114% | 67.9% | 20.5 min | 112% | 147% |
| O=C(Nc1ccc(F)cc1F)c1cccnc1Oc1cccc(C(F)(F)F)c1 [Diflufenican] | 96.6% | 92.4% | 88% | 87.2% | 21.4 min | 106% | 101% |
| COc1ccc2c3c1OC1C(O)CCC4C(C2)[NH+](C)CCC341 (stereo not given) [Dihydrocodeine] | 98.5% | 107% | 94.1% | 97.7% | 9.1 min | 108% | 100% |
| COc1ccc(C2Sc3ccccc3N(CC[NH+](C)C)C(=O)C2OC(C)=O)cc1 (stereo not given) [Diltiazem] | 89% | 95.6% | 91.9% | 144% | 15.1 min | 90.5% | 94.2% |
| CN(C)C(=O)Nc1ccc(-n2nc(C(C)(C)C)oc2=O)c(Cl)c1 [Dimefuron] | 103% | 98.3% | 100% | 92% | 18.9 min | 108% | 103% |
| COCCN(C(=O)CS(=O)(=O)[O-])c1c(C)cccc1C [Dimethachlor-ESA] | 95.5% | 102% | 102% | 84.4% | 19.9 min | 104% | 109% |
| COCCN(C(=O)C(=O)[O-])c1c(C)cccc1C [Dimethachlor-OXA] | 96.8% | 88% | 92.8% | 87.9% | 18.2 min | 109% | 107% |
